Assay results from patent US20220362276A1, “Small Molecule Inhibitors of Viral Replication” (The Trustees of Princeton University, priority 2019, published 2022).
“Also recorded” adds a separate entry of the source.

Columns and labels:
[1] = test system: p6/BSR-2A-ZsGreen replicon
[2] = test system: SHEV-3/Gluc (genotype 3, swine-derived); test: Dose titration against SHEV-3/Gluc replicon; conditions: genotype 3, poor replicative capacity
[3] = test system: TW6196E/Gluc (genotype 4); test: Dose titration against TW6196E/Gluc replicon; conditions: genotype 4, poor replicative capacity
[4] = biological target: T1, ABHD10 (Homo sapiens, UniProt Q9NUJ1); test: Two-dimensional thermal proteome profiling (CETSA) in crude cell extract; conditions: isocotoin 0.5-30 μM, 37-66.3 °C
T1 sequence (Q9NUJ1 53-306): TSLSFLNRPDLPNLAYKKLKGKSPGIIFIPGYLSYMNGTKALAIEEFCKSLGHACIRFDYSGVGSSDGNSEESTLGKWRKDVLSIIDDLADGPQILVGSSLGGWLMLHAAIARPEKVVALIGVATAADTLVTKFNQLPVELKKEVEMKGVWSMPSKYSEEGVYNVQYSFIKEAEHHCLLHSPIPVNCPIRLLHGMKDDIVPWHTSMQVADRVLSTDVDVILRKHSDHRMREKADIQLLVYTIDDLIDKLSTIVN

[5] = biological target: T2, HSPA14 (Homo sapiens, UniProt Q0VDF9); test: as above; conditions: isocotoin 0.5-30 μM, 37-66.3 °C
T2 sequence (Q0VDF9 1-509): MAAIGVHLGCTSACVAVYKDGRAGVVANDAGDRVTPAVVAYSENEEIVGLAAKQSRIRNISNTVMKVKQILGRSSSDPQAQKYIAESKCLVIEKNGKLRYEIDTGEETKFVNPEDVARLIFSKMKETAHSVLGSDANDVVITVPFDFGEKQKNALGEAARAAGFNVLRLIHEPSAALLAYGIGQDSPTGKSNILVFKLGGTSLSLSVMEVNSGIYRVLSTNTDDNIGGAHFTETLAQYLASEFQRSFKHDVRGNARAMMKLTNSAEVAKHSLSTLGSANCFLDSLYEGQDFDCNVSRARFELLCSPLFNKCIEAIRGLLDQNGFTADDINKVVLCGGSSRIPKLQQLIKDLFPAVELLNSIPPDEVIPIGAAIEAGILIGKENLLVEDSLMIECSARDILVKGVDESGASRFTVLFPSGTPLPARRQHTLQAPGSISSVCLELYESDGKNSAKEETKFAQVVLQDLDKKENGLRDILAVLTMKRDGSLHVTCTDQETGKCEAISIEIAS

For `COc1cc(O)cc(O)c1C(=O)c1ccccc1` [isocotoin, 4-benzoyl-5-methoxybenzene-1,3-diol], the “toxicity to cells on passaging” value ([1]; 30 μM isocotoin dose) was “some toxicity”, the “ZsGreen levels on passaging” value ([1]; 30 μM isocotoin, first few passages) was “sharp decrease in ZsGreen levels” and the “inhibition of SHEV-3/Gluc replication, in words” value [2] was “modest inhibitory effect; also recorded: inhibits replication”. For the same compound, the “inhibition of TW6196E/Gluc replication, in words” value [3] was “modest inhibitory effect; also recorded: inhibits replication”, the “soluble protein fraction of ABHD10” value [4] was “among hits showing the greatest increase in soluble protein fraction” and the “thermal shift of HSPA14” value [5] was “did not produce a thermal shift”.
